Results: patent US12077503B2, “Substituted cyclic amides and their use as herbicides” (FMC CORPORATION, priority 2015, dated 2024)

What was measured:
Format in all cases: in vivo
[1] = test system: ivy-leaved morning glory (Ipomoea hederacea); assay: Test G Post-Emergence Protocol; conditions: Ipomoea, post-emergence, 312 h, read-out: Morningglory, Ivy-leaved damage rating
Outline: (§1)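 Seedlings grown 8 days in soil in a glasshouse (24/16 °C day/night, 14 h light, 65% humidity) were sprayed post-emergence with compound in acetone/water 50:50 plus 0.5% Tween 20 at 15.625, 62.5 or 250 g/ha. Damage was scored after 13 days on a 0–100 scale (100 = total damage).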

[2] = test system: velvetleaf (Abutilon theophrasti); assay: Test G Post-Emergence Protocol; conditions: Abutilon theophrasti, post-emergence, 312 h, read-out: Velvetleaf damage rating
Outline: as §1

[3] = test system: barnyardgrass (Echinochloa crus-galli); assay: Test G Post-Emergence Protocol; conditions: Echinochloa crus-galli, post-emergence, 312 h, read-out: Barnyardgrass damage rating
Outline: as §1

[4] = test system: giant foxtail (Setaria faberi); assay: Test G Post-Emergence Protocol; conditions: Setaria faberi, post-emergence, 312 h, read-out: Foxtail, Giant damage rating
Outline: as §1

corn (Zea mays) [5] = assay: Test G Post-Emergence Protocol; conditions: Zea mays, post-emergence, 312 h, read-out: Corn damage rating
Outline: as §1

[6] = test system: redroot pigweed (Amaranthus retroflexus); assay: Test G Post-Emergence Protocol; conditions: Amaranthus retroflexus, post-emergence, 312 h, read-out: Pigweed, Redroot damage rating
Outline: as §1

[7] = test system: ivy-leaved morning glory (Ipomoea hederacea); assay: Test G Pre-Emergence Protocol; conditions: Ipomoea, pre-emergence, 312 h, evaluated after 13 days
Outline: (§2)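 Pots of seeds in standard soil were grown for one day in a glasshouse (24/16 °C day/night, 14 h light, 65% humidity), then sprayed with compound in acetone/water 50:50 with 0.5% Tween 20 at 15.625, 62.5 or 250 g/ha. Damage was scored after 13 days on a 0 (none) to 100 (total) scale.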

[8] = test system: velvetleaf (Abutilon theophrasti); assay: Test G Pre-Emergence Protocol; conditions: Abutilon theophrasti, pre-emergence, 312 h, evaluated after 13 days
Outline: as §2

[9] = test system: barnyardgrass (Echinochloa crus-galli); assay: Test G Pre-Emergence Protocol; conditions: Echinochloa crus-galli, pre-emergence, 312 h, evaluated after 13 days
Outline: as §2

[10] = test system: giant foxtail (Setaria faberi); assay: Test G Pre-Emergence Protocol; conditions: Setaria faberi, pre-emergence, 312 h, evaluated after 13 days
Outline: as §2

corn (Zea mays) [11] = assay: Test G Pre-Emergence Protocol; conditions: Zea mays, pre-emergence, 312 h, evaluated after 13 days
Outline: as §2

[12] = test system: redroot pigweed (Amaranthus retroflexus); assay: Test G Pre-Emergence Protocol; conditions: Amaranthus retroflexus, pre-emergence, 312 h, evaluated after 13 days
Outline: as §2

[13] = 15.625 g ai/ha, evaluated after 13 days (100=total damage to plant; 0=no damage to plant)
[14] = 62.5 g ai/ha, evaluated after 13 days, 100=total damage to plant, 0=no damage to plant
[15] = 250 g ai/ha, evaluated after 13 days, 100=total damage to plant, 0=no damage to plant

Cc1c(F)cccc1NC(=O)[C@@H]1C(=O)N(C)C[C@H]1c1cc(Cl)c(F)c(Cl)c1 (racemic) [Compound 1792]
pest or weed control at 15.625 g/ha [1, 13]: 10%
pest or weed control at 62.5 g/ha [1, 14]: 30%
pest or weed control at 250 g/ha [1, 15]: 40%
pest or weed control at 15.625 g/ha [2, 13]: 0%
pest or weed control at 62.5 g/ha [2, 14]: 20%
pest or weed control at 250 g/ha [2, 15]: 40%
pest or weed control at 15.625 g/ha [3, 13]: 30%
pest or weed control at 62.5 g/ha [3, 14]: 70%
pest or weed control at 250 g/ha [3, 15]: 70%
pest or weed control at 15.625 g/ha [4, 13]: 70%
pest or weed control at 62.5 g/ha [4, 14]: 80%
pest or weed control at 250 g/ha [4, 15]: 80%
plant injury at 15.625 g/ha (corn (Zea mays) [5]; [13]): 20%
plant injury at 62.5 g/ha (corn (Zea mays) [5]; [14]): 40%
plant injury at 250 g/ha (corn (Zea mays) [5]; [15]): 60%
pest or weed control at 15.625 g/ha [6, 13]: 0%
pest or weed control at 62.5 g/ha [6, 14]: 0%
pest or weed control at 250 g/ha [6, 15]: 0%
pest or weed control at 15.625 g/ha ([7]; 15.625 g ai/ha, read-out: Morningglory, Ivy-leaved damage rating (100=total damage to plant; 0=no damage to plant)): 0%
pest or weed control at 62.5 g/ha ([7]; 62.5 g ai/ha, 100=total damage to plant, 0=no damage to plant, read-out: Morningglory, Ivy-leaved damage rating): 0%
pest or weed control at 250 g/ha ([7]; 250 g ai/ha, read-out: Morningglory, Ivy-leaved damage rating (100=total damage to plant; 0=no damage to plant)): 0%
pest or weed control at 15.625 g/ha ([8]; 15.625 g ai/ha, read-out: Velvetleaf damage rating (100=total damage to plant; 0=no damage to plant)): 0%
pest or weed control at 62.5 g/ha ([8]; 62.5 g ai/ha, 100=total damage to plant, 0=no damage to plant, read-out: Velvetleaf damage rating): 0%
pest or weed control at 250 g/ha ([8]; 250 g ai/ha, read-out: Velvetleaf damage rating (100=total damage to plant; 0=no damage to plant)): 0%
pest or weed control at 15.625 g/ha ([9]; 15.625 g ai/ha, read-out: Barnyardgrass damage rating (100=total damage to plant; 0=no damage to plant)): 30%
pest or weed control at 62.5 g/ha ([9]; 62.5 g ai/ha, 100=total damage to plant, 0=no damage to plant, read-out: Barnyardgrass damage rating): 70%
pest or weed control at 250 g/ha ([9]; 250 g ai/ha, read-out: Barnyardgrass damage rating (100=total damage to plant; 0=no damage to plant)): 80%
pest or weed control at 15.625 g/ha ([10]; 15.625 g ai/ha, read-out: Foxtail, Giant damage rating (100=total damage to plant; 0=no damage to plant)): 80%
pest or weed control at 62.5 g/ha ([10]; 62.5 g ai/ha, 100=total damage to plant, 0=no damage to plant, read-out: Foxtail, Giant damage rating): 80%
pest or weed control at 250 g/ha ([10]; 250 g ai/ha, read-out: Foxtail, Giant damage rating (100=total damage to plant; 0=no damage to plant)): 90%
plant injury at 15.625 g/ha (corn (Zea mays) [11]; 15.625 g ai/ha, read-out: Corn damage rating (100=total damage to plant; 0=no damage to plant)): 0%
plant injury at 62.5 g/ha (corn (Zea mays) [11]; 62.5 g ai/ha, 100=total damage to plant, 0=no damage to plant, read-out: Corn damage rating): 20%
plant injury at 250 g/ha (corn (Zea mays) [11]; 250 g ai/ha, read-out: Corn damage rating (100=total damage to plant; 0=no damage to plant)): 50%
pest or weed control at 15.625 g/ha ([12]; 15.625 g ai/ha, read-out: Pigweed, Redroot damage rating (100=total damage to plant; 0=no damage to plant)): 0%
pest or weed control at 62.5 g/ha ([12]; 62.5 g ai/ha, 100=total damage to plant, 0=no damage to plant, read-out: Pigweed, Redroot damage rating): 0%
pest or weed control at 250 g/ha ([12]; 250 g ai/ha, read-out: Pigweed, Redroot damage rating (100=total damage to plant; 0=no damage to plant)): 0%
